Measurements from patent US20140343014A1, “COMBINATION OF A CERTAIN DPP-4 INHIBITOR AND VOGLIBOSE” (BOEHRINGER INGELHEIM INTERNATIONAL GMBH, priority 2013, published 2014).
“Also recorded” adds a separate entry of the source.

Experiment: Pharmacokinetics of BI 1356 in patients with type 2 diabetes, multiple oral doses once daily for 12 days
Settings: therapeutic oral dose levels; listed as BI 1356

Which route of excretion does the source give for `CC#CCn1c(N2CCC[C@@H](N)C2)nc2c1c(=O)n(Cc1nc(C)c3ccccc3n1)c(=O)n2C` [linagliptin] here?
Its route of excretion is “mainly excreted via the liver; also recorded: primarily excreted unchanged via the bile”.
